Results: US8530460B2, “Azetidine derivatives” (Boehringer Ingelheim International GmbH, priority 2011, dated 2013)
Read-outs that look alike come from different tables or passages of the source.

Biological target: human ACC2 (Homo sapiens (Human), UniProt O00763)
Assay: ACC2 assay (spectrophotometric 384 well assay, NADH-linked coupled lactate dehydrogenase/pyruvate kinase)
Format: biochemical
Description: Spectrophotometric 384 Well Assay
Malonyl CoA formation by acetyl CoA carboxylases is stoichometrically linked to the consumption of ATP. ACC2 activity is measured in a NADH-linked kinetic method measuring ADP generated during the ACC reaction using a coupled lactate dehydrogenase/pyruvate kinase reaction.
For biological testing, a human ACC2 construct which lacks the 128 amino acids at the N-terminus for increased solubility (nt 385-6966 in Genbank entry AJ575592) is cloned. The protein is then expressed in insect cells using a baculoviral expression system. Protein purification is performed by anion exchange.
All compounds are dissolved in dimethyl sulfoxide (DMSO) to a concentration of 10 mM.
Assay reactions are then carried out in 384-well plates, with hACC2 in an appropriate dilution and at final assay concentrations (f.c.) of 100 mM Tris (pH 7.5), 10 mM trisodium citrate, 25 mM KHCO3, 10 mM MgCl2, 0.5 mg/ml BSA, 3.75 mM reduced L-glutathione, 15 U/ml lactate dehydrogenase, 0.5 mM phosphoenolpyruvate, 15 U/ml pyruvate kinase, compounds at different concentrations at final DMSO concentrations of 1%.
The enzymatic reaction is then started by addition of a mixture of NADH, acetyl Coenzyme A (both 200 μM f.c.) and ATP (500 uM f.c.). The decrease of the optical density (slope S) is then determined at 25° C. at a wavelength of 340 nm over 15 minutes in a spectrophotometric reader.
Each assay microtiter plate contains wells with vehicle instead of compound as controls for the non-inhibited enzyme (100% CTL; ‘HIGH’) and wells without acetyl-CoA as controls for non-specific NADH degradation (0% CTL; ‘LOW’).
The slope S is used for calculation of % CTL=(S(compound)−S(‘LOW’))/(S(‘HIGH’)—S(‘LOW’))*100. Compounds will give values between 100% CTL (no inhibition) and 0% CTL (complete inhibition).
For IC50 value determination, the sample slope in the presence of the test compound after subtraction of the low controls (S(compound)−S(‘LOW’)) are used.
An IC50 value is derived from the compound slopes at different dosages after subtraction of the low controls (S(compound)−S(‘LOW’)) by non-linear regression curve fitting (equation y=(A+((B−A)/(1+((C/x)^D))))).

[1] = hACC2 construct lacking 128 N-terminal amino acids, 25° C., 340 nm, 15 minutes

human ACC2, sequence (O00763 129-2458): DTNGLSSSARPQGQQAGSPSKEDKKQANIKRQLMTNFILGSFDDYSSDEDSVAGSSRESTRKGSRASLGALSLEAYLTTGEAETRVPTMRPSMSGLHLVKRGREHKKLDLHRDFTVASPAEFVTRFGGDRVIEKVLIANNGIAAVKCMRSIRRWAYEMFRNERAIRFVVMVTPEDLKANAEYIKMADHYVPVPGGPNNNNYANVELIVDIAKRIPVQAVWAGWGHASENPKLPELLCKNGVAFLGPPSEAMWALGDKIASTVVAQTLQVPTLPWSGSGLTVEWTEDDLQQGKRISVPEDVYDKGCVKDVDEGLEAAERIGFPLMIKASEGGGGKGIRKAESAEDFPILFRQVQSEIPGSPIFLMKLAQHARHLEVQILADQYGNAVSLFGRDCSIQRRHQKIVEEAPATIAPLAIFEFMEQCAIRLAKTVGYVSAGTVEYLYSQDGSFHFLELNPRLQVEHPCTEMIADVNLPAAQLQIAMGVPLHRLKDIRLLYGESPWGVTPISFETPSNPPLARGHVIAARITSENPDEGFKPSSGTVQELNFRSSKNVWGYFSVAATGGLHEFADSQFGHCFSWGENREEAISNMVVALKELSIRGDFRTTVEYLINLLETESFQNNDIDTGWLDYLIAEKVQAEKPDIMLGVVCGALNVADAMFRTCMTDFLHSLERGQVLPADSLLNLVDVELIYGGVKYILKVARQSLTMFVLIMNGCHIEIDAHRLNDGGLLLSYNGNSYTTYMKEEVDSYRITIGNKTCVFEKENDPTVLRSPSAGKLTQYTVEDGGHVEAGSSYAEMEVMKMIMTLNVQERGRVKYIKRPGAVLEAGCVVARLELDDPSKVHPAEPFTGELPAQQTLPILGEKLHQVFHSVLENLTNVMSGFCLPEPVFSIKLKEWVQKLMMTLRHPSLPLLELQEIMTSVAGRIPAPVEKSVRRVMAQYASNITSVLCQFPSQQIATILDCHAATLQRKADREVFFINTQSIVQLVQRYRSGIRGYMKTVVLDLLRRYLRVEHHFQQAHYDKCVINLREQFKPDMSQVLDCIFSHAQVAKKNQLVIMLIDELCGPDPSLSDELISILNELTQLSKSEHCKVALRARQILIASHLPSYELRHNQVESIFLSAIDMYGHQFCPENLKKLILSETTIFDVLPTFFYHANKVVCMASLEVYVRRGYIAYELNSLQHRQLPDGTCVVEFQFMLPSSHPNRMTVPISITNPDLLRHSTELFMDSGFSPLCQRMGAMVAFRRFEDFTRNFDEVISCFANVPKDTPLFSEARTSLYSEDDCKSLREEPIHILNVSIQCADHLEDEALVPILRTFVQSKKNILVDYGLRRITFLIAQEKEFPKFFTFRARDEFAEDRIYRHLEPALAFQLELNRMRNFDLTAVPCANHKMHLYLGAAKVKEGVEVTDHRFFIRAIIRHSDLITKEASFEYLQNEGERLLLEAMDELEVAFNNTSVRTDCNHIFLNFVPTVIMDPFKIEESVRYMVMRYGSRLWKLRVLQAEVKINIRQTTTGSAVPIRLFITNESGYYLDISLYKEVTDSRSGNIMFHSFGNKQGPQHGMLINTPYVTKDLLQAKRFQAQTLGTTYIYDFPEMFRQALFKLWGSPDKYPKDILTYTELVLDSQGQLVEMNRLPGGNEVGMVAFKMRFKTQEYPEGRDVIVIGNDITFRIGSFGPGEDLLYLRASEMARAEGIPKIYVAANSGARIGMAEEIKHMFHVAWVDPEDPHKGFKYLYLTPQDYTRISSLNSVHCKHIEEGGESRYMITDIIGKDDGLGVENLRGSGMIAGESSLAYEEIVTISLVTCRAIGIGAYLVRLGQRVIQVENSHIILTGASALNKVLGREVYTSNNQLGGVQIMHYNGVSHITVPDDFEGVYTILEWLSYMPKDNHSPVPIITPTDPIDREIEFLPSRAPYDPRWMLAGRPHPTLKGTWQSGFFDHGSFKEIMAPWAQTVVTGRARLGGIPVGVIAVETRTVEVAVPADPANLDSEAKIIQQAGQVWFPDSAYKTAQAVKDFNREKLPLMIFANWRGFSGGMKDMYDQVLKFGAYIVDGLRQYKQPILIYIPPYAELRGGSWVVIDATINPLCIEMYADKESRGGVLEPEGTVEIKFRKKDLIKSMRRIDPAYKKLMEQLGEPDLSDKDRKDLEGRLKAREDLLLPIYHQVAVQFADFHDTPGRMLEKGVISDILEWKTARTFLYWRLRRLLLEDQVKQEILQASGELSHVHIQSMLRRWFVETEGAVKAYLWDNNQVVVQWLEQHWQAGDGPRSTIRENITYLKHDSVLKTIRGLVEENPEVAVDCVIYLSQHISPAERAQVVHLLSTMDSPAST

Row | IC50 [1] | Compound | IC50
1 | 1.39 µM | CCOc1ccc(N2CC(Oc3ccc([C@H](C)NC(C)=O)cc3)C2)c(C#N)n1 [Example 1.58] | –
2 | 0.3 µM | CCCOc1ccc(N2CC(Oc3ccc([C@H](C)NC(C)=O)cc3)C2)c(C#N)n1 [Example 1.59] | –
3 | 0.65 µM | CC(=O)N[C@@H](C)c1ccc(OC2CN(c3ccc(OCC4CC4)nc3C#N)C2)cc1 [Example 1.60] | –
4 | 2.54 µM | COc1cc(OCC2CC2(F)F)ccc1N1CC(Oc2ccc([C@H](C)NC(C)=O)cc2)C1 (stereo partly shown) [Example 1.61] | –
5 | 2.91 µM | CCOc1cc(N2CC(Oc3ccc([C@H](C)NC(C)=O)cc3)C2)c(F)cn1 [Example 1.62] | –
6 | – | CC(=O)N[C@@H](C)c1ccc(OC2CN(c3ccc(OCC4CC4)nc3)C2)cc1 [Example 2.1, (S)—N-(1-(4-(1-(6-(Cyclopropylmethoxy)Pyridin-3-yl)azetidin-3-yloxy)phenyl)ethyl)-acetamide] | 0.88 µM
7 | 0.06 µM | CC(=O)N[C@@H](C)c1ccc(OC2CN(c3ccc(OCC4CC4)cc3F)C2)cc1 [Example 2.2] | –
8 | 0.24 µM | CCOc1ccc(N2CC(Oc3ccc([C@H](C)NC(C)=O)cc3)C2)c(F)c1 [Example 2.3] | –
9 | 6.14 µM | CC(=O)N[C@@H](C)c1ccc(OC2CN(c3ccc(OC4CC4)cc3OC3CC3)C2)cc1 [Example 2.4] | –
10 | 0.17 µM | CCCOc1ccc(N2CC(Oc3ccc([C@H](C)NC(C)=O)cc3)C2)c(C)c1 [Example 2.5] | –
11 | 0.09 µM | CCCOc1ccc(N2CC(Oc3ccc([C@H](C)NC(C)=O)cc3)C2)c(Cl)c1 [Example 2.6] | –
12 | 2.06 µM | CC(=O)N[C@@H](C)c1ccc(OC2CN(c3ccnc(OC(C)C)c3)C2)cc1 [Example 2.7] | –
13 | 4.1 µM | CC(=O)N[C@@H](C)c1ccc(OC2CN(c3ccnc(Oc4ccccc4)c3)C2)cc1 [Example 2.8] | –
14 | 10.6 µM | CC(=O)N[C@@H](C)c1ccc(OC2CN(c3ccnc(Oc4cncnc4)c3)C2)cc1 [Example 2.9] | –
15 | 0.14 µM | CCOc1ccc(N2CC(Oc3ccc([C@H](C)NC(=O)C4CC4)cc3)C2)cc1 [Example 2.10] | –
16 | 4.5 µM | CCCOc1ccnc(N2CC(Oc3ccc([C@H](C)NC(C)=O)cc3)C2)c1 [Example 2.12] | –

Row | IC50 [1] | Compound | IC50
17 | 0.21 µM | CC(=O)N[C@@H](C)c1ccc(OC2CN(c3ncc(Br)cn3)C2)cc1 [Example 3.1, (S)—N-(1-(4-(1-(5-bromopyrimidin-2-yl)azetidin-3-yloxy)phenyl)ethyl)acetamide] | –
18 | 1.12 µM | COc1cnc(N2CC(Oc3ccc([C@H](C)NC(C)=O)cc3)C2)nc1 [Example 3.2] | –
19 | 0.32 µM | CCCc1cnc(N2CC(Oc3ccc(C(C)NC(C)=O)cc3)C2)nc1 (stereo not shown) [Example 3.3] | –
20 | 1.47 µM | COc1ccc(-c2cnc(N3CC(Oc4ccc(C(C)NC(C)=O)cc4)C3)nc2)cc1 (stereo not shown) [Example 3.4] | –
21 | 0.2 µM | C[C@H](NC(=O)C1CC1)c1ccc(OC2CN(c3ncc(C4CC4)cn3)C2)cc1 [Example 3.5] | –
22 | 3.88 µM | C[C@H](NC(=O)C1CC1)c1ccc(OC2CN(c3ncc(Br)cn3)C2)cc1 [Example 3.6] | –
23 | 0.47 µM | C[C@H](NC(=O)N(C)C)c1ccc(OC2CN(c3ncc(Br)cn3)C2)cc1 [Example 3.7] | –
24 | 3.82 µM | CC(=O)N[C@@H](C)c1ccc(OC2CN(c3nnc(-c4ccccc4)s3)C2)cc1 [Example 3.9] | –
25 | 2.04 µM | CC(=O)N[C@@H](C)c1ccc(OC2CN(c3ccc4ccccc4n3)C2)cc1 [Example 4.2] | –
26 | 0.48 µM | CC(=O)N[C@@H](C)c1ccc(OC2CN(c3nc4ccccc4o3)C2)cc1 [Example 4.3] | –
27 | 3.99 µM | CC(=O)N[C@@H](C)c1ccc(OC2CN(c3cc(C(F)(F)F)cc(C)n3)C2)cc1 [Example 4.4] | –
28 | 2.45 µM | CC(=O)N[C@@H](C)c1ccc(OC2CN(c3ccc(C(C)C)cn3)C2)cc1 [Example 4.5] | –
29 | 6.23 µM | CC(=O)N[C@@H](C)c1ccc(OC2CN(c3nccc4ccccc34)C2)cc1 [Example 4.6] | –
30 | 3.47 µM | CC(=O)N[C@@H](C)c1ccc(OC2CN(c3cc(Cl)ccn3)C2)cc1 [Example 4.7] | –
31 | 0.24 µM | CC(=O)N[C@@H](C)c1ccc(OC2CN(c3ccc(-c4ccccc4)cn3)C2)cc1 [Example 4.8] | –
